Measured values from ChEMBL document CHEMBL3046319, “PCR-RFLP detection of the E198A mutation conferring resistance to benzimidazoles in field isolates of Monilinia laxa from Greece” (Crop Prot, 2012).
Converted amounts (≈) assume the structure as drawn. The source made the active and inactive calls. The rule behind the calls is not given here.

Experiments:
Monilinia laxa [1] = experiment: Fungicidal activity against Monilinia laxa isolate MLK1 assessed as virulence in prune fruits assessed as virulence treated 10 min prior to mycelial inoculation at 24 degC after 10 days relative to isolate MLX1by pathogenicity bioassay; type: functional
Monilinia laxa [2] = experiment: Fungicidal activity against Monilinia laxa isolate MLK1 assessed as mean number of conidia produced in the colony at 25 degC after 12 days by haemocytometer; type: functional
Monilinia laxa [3] = experiment: Fungicidal activity against Monilinia laxa isolate MLC6 assessed as reduction in mycelial growth rate at 25 degC after 4 days; type: functional, organism-based; details: isolate MLC6, 96 h
Monilinia laxa [4] = experiment: Fungicidal activity against Monilinia laxa isolate MLBO2 assessed as reduction in mycelial growth rate at 1 to 10 ug/ml at 31 degC after 5 days; type: functional, organism-based
Monilinia laxa [5] = experiment: Fungicidal activity against Monilinia laxa isolate MLK5 assessed as reduction in mycelial growth rate at 1 to 10 ug/ml at 31 degC after 5 days; type: functional, organism-based
Monilinia laxa [6] = experiment: Fungicidal activity against Monilinia laxa isolate MLAl8 assessed as reduction in mycelial growth rate at 25 degC after 4 days; type: functional, organism-based; details: isolate MLAl8, 96 h
Monilinia laxa [7] = experiment: Fungicidal activity against Monilinia laxa isolate MLNS2 assessed as reduction in mycelial growth rate at 1 to 10 ug/ml at 28 degC after 8 days; type: functional, organism-based
Monilinia laxa [8] = experiment: Fungicidal activity against Monilinia laxa isolate MLK1 assessed as reduction in mycelial growth rate at 1 to 10 ug/ml at 31 degC after 5 days; type: functional, organism-based
Monilinia laxa [9] = experiment: Fungicidal activity against Monilinia laxa isolate MLK8 assessed as reduction in mycelial growth rate at 1 to 10 ug/ml at 31 degC after 5 days; type: functional, organism-based
Monilinia laxa [10] = experiment: Fungicidal activity against Monilinia laxa isolate MLK1 assessed as mean mycelial colony diameter at 25 degC after 4 days; type: functional
Monilinia laxa [11] = experiment: Fungicidal activity against Monilinia laxa isolate MLBO2 assessed as mean number of conidia produced in the colony at 25 degC after 12 days by haemocytometer; type: functional
Monilinia laxa [12] = experiment: Fungicidal activity against Monilinia laxa isolate MLC3 assessed as reduction in mycelial growth rate at 25 degC after 4 days; type: functional, organism-based; details: isolate MLC3, 96 h
Monilinia laxa [13] = experiment: Fungicidal activity against Monilinia laxa isolate MLA1 assessed as mycelial growth at 1 ug/ml at 25 degC after 4 days; type: functional
Monilinia laxa [14] = experiment: Fungicidal activity against Monilinia laxa isolate MLNS1 assessed as reduction in mycelial growth rate at 1 to 10 ug/ml at 25 to 28 degC; type: functional, organism-based
Monilinia laxa [15] = experiment: Fungicidal activity against Monilinia laxa isolate MLC2 assessed as reduction in mycelial growth rate at 25 degC after 4 days; type: functional, organism-based; details: isolate MLC2, 96 h
Monilinia laxa [16] = experiment: Fungicidal activity against Monilinia laxa isolate MLG5 assessed as reduction in mycelial growth rate at 25 degC after 4 days; type: functional, organism-based; details: isolate MLG5, 96 h
Monilinia laxa [17] = experiment: Fungicidal activity against Monilinia laxa isolate MLK9 assessed as reduction in mycelial growth rate at 25 degC after 4 days; type: functional, organism-based; details: isolate MLK9, 96 h
Monilinia laxa [18] = experiment: Fungicidal activity against Monilinia laxa isolate MLG5 assessed as reduction in mycelial growth rate at 1 to 10 ug/ml at 31 degC after 5 days; type: functional, organism-based
Monilinia laxa [19] = experiment: Fungicidal activity against Monilinia laxa isolate MLC2 assessed as mycelial growth at 1 ug/ml at 25 degC after 4 days; type: functional
Monilinia laxa [20] = experiment: Fungicidal activity against Monilinia laxa isolate MLKS1 assessed as reduction in mycelial growth rate at 1 to 10 ug/ml at 31 degC after 5 days; type: functional, organism-based
Monilinia laxa [21] = experiment: Fungicidal activity against Monilinia laxa isolate MLG6 assessed as reduction in mycelial growth rate at 25 degC after 4 days; type: functional, organism-based; details: isolate MLG6, 96 h
Monilinia laxa [22] = experiment: Fungicidal activity against Monilinia laxa isolate MLC2 assessed as virulence in prune fruits assessed as virulence treated 10 min prior to mycelial inoculation at 24 degC after 10 days relative to isolate MLX1by pathogenicity bioassay; type: functional
Monilinia laxa [23] = experiment: Fungicidal activity against Monilinia laxa isolate MLK2 assessed as reduction in mycelial growth rate at 25 degC after 4 days; type: functional, organism-based; details: isolate MLK2, 96 h
Monilinia laxa [24] = experiment: Fungicidal activity against Monilinia laxa isolate MLK2 assessed as reduction in mycelial growth rate at 1 to 10 ug/ml at 25 to 28 degC; type: functional, organism-based
Monilinia laxa [25] = experiment: Fungicidal activity against Monilinia laxa isolate MLX2 assessed as reduction in mycelial growth rate at 1 to 10 ug/ml at 31 degC after 5 days; type: functional, organism-based
Monilinia laxa [26] = experiment: Fungicidal activity against Monilinia laxa isolate MLK1 assessed as reduction in mycelial growth rate at 1 to 10 ug/ml at 28 degC after 8 days; type: functional, organism-based
Monilinia laxa [27] = experiment: Fungicidal activity against Monilinia laxa isolate MLG7 assessed as reduction in mycelial growth rate at 1 to 10 ug/ml at 31 degC after 5 days; type: functional, organism-based
Monilinia laxa [28] = experiment: Fungicidal activity against Monilinia laxa isolate MLK6 assessed as reduction in mycelial growth rate at 1 to 10 ug/ml at 31 degC after 5 days; type: functional, organism-based
Monilinia laxa [29] = experiment: Fungicidal activity against Monilinia laxa isolate KX3 assessed as reduction in mycelial growth rate at 1 to 10 ug/ml at 31 degC after 5 days; type: functional, organism-based
Monilinia laxa [30] = experiment: Fungicidal activity against Monilinia laxa isolate MLP2 assessed as reduction in mycelial growth rate at 1 to 10 ug/ml at 31 degC after 5 days; type: functional, organism-based
Monilinia laxa [31] = experiment: Fungicidal activity against Monilinia laxa isolate MLK12 assessed as reduction in mycelial growth rate at 1 to 10 ug/ml at 28 degC after 8 days; type: functional, organism-based
Monilinia laxa [32] = experiment: Fungicidal activity against Monilinia laxa isolate MLK6 assessed as reduction in mycelial growth rate at 1 to 10 ug/ml at 28 degC after 8 days; type: functional, organism-based
Monilinia laxa [33] = experiment: Fungicidal activity against Monilinia laxa isolate MLK12 assessed as mean number of conidia produced in the colony at 25 degC after 12 days by haemocytometer; type: functional
Monilinia laxa [34] = experiment: Fungicidal activity against Monilinia laxa isolate MLC5 assessed as reduction in mycelial growth rate at 1 to 10 ug/ml at 31 degC after 5 days; type: functional, organism-based
Monilinia laxa [35] = experiment: Fungicidal activity against Monilinia laxa isolate MLBO7 assessed as reduction in mycelial growth rate at 25 degC after 4 days; type: functional, organism-based; details: isolate MLBO7, 96 h
Monilinia laxa [36] = experiment: Fungicidal activity against Monilinia laxa isolate MLC2 assessed as reduction in mycelial growth rate at 1 to 10 ug/ml at 31 degC after 5 days; type: functional, organism-based
Monilinia laxa [37] = experiment: Fungicidal activity against Monilinia laxa isolate MLBO4 assessed as reduction in mycelial growth rate at 25 degC after 4 days; type: functional, organism-based; details: isolate MLBO4, 96 h
Monilinia laxa [38] = experiment: Fungicidal activity against Monilinia laxa isolate MLX3 assessed as reduction in mycelial growth rate at 1 to 10 ug/ml at 28 degC after 8 days; type: functional, organism-based
Monilinia laxa [39] = experiment: Fungicidal activity against Monilinia laxa isolate MLC3 assessed as reduction in mycelial growth rate at 1 to 10 ug/ml at 31 degC after 5 days; type: functional, organism-based
Monilinia laxa [40] = experiment: Fungicidal activity against Monilinia laxa isolate MLNS1 assessed as reduction in mycelial growth rate at 1 to 10 ug/ml at 28 degC after 8 days; type: functional, organism-based
Monilinia laxa [41] = experiment: Fungicidal activity against Monilinia laxa isolate MLK5 assessed as reduction in mycelial growth rate at 1 to 10 ug/ml at 28 degC after 8 days; type: functional, organism-based

**Q.** What does the source list for `COC(=O)Nc1nc2ccccc2[nH]1` [CARBENDAZIM]?
**A.** Activity (Monilinia laxa [1]): 97.77%; Activity (Monilinia laxa [2]): 6.55 /cm2; EC50 (Monilinia laxa [3]): 0.12 µg/mL (≈ 0.628 µM); inhibition (Monilinia laxa [4]): Active; inhibition (Monilinia laxa [5]): Active; EC50 (Monilinia laxa [6]): > 50 µg/mL; inhibition (Monilinia laxa [7]): inactive; inhibition (Monilinia laxa [8]): Active; inhibition (Monilinia laxa [9]): Active; Activity (Monilinia laxa [10]): 30.55 mm; Activity (Monilinia laxa [11]): 3.54 /cm2; EC50 (Monilinia laxa [12]): > 50 µg/mL; Activity (Monilinia laxa [13]): 0%; inhibition (Monilinia laxa [14]): inactive; EC50 (Monilinia laxa [15]): > 50 µg/mL; EC50 (Monilinia laxa [16]): 0.09 µg/mL (≈ 0.471 µM); EC50 (Monilinia laxa [17]): 0.08 µg/mL (≈ 0.418 µM); inhibition (Monilinia laxa [18]): Active; Activity (Monilinia laxa [19]): 98.28%; inhibition (Monilinia laxa [20]): Active; EC50 (Monilinia laxa [21]): 0.12 µg/mL (≈ 0.628 µM); Activity (Monilinia laxa [22]): 98.52%; EC50 (Monilinia laxa [23]): > 50 µg/mL; inhibition (Monilinia laxa [24]): inactive; inhibition (Monilinia laxa [25]): Active; inhibition (Monilinia laxa [26]): inactive; inhibition (Monilinia laxa [27]): Active; inhibition (Monilinia laxa [28]): Active; inhibition (Monilinia laxa [29]): Active; inhibition (Monilinia laxa [30]): Active; inhibition (Monilinia laxa [31]): inactive; inhibition (Monilinia laxa [32]): inactive; Activity (Monilinia laxa [33]): 4.7 /cm2; inhibition (Monilinia laxa [34]): Active; EC50 (Monilinia laxa [35]): 0.1 µg/mL (≈ 0.523 µM); inhibition (Monilinia laxa [36]): Active; EC50 (Monilinia laxa [37]): 0.05 µg/mL (≈ 0.262 µM); inhibition (Monilinia laxa [38]): inactive; inhibition (Monilinia laxa [39]): Active; inhibition (Monilinia laxa [40]): inactive; inhibition (Monilinia laxa [41]): inactive
